Values quoted from earlier work, collected in patent US9546401B2, “Assays and methods for selecting a treatment regimen for a subject with depression” (The General Hospital Corporation, priority 2011, dated 2017).
Like-named read-outs stand apart in the source and are kept apart here.

Key:
[1] = tested on: adults with major depression; settings: cited from earlier work
[2] = tested on: depression; settings: parenteral and certain oral forms; cited from earlier work
[3] = tested on: adults with MDD and partial or nonresponse to an SSRI; settings: cited from earlier work

## CNCCC(Oc1ccc(C(F)(F)F)cc1)c1ccccc1 (stereo not shown) [fluoxetine]
[1]; individuals with low or deficient serum folate
  rate of non-response: 35%
[1]; serum folate levels in the normal range
  rate of non-response: 20%

## C[S+](CC[C@H](N)C(=O)O)C[C@H]1O[C@@H](n2cnc3c(N)ncnc32)[C@H](O)[C@@H]1O (stereo partly shown) [SAM, S-adenosyl methionine]
[2]
  antidepressant efficacy: antidepressant efficacy greater than placebo and comparable to that of tricyclic antidepressants

## Nc1nc2c(c(=O)[nH]1)N(C=O)C(CNc1ccc(C(=O)N[C@@H](CCC(=O)O)C(=O)O)cc1)CN2 (stereo partly shown) [folinic acid, Folinic acid]
[3]; 15-30 mg/day added to SSRIs, 8 weeks, baseline 28+/−19 ng/mL
  Folate levels after treatment: 301 ± 203 ng/mL
[3]; 16 completers, baseline 19.1+/−3.9
  HAM-D-17 score after treatment: 12.8+/−7.0
[3]; ITT sample
  remission (HAM-D-17 no greater than 7): 18%
[3]; completers
  remission (HAM-D-17 no greater than 7): 19%
  response (at least 50% reduction in HAM-D-17): 31%
[3]; in vivo
  efficacy as an adjunct in SSRI-refractory depressed individuals with normal folate levels: only modestly effective
[3]; intent-to-treat (ITT) sample
  response (at least 50% reduction in HAM-D-17): 27%
